Some results are limits rather than exact numbers.

Assay [1] has as its system Mus musculus. The assay is described as follows: Effect on Motor activity in mouse following i.p. administration. In kind it is functional. The conditions noted are these: ip.
For another assay, the target named is T1, Adenosine receptor A1 (Rattus norvegicus, UniProt P25099).
T1 sequence (P25099 whole entry): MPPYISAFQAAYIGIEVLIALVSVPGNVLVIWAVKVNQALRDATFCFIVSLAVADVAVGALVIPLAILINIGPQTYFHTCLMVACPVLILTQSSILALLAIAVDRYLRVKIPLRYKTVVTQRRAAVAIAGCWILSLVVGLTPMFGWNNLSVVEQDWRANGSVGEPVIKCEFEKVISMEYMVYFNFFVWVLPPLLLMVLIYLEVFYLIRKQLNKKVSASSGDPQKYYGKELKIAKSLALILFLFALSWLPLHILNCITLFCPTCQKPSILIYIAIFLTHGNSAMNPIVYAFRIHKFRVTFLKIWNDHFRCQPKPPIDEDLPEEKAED

Assay [2] concerns Mus musculus. The assay is described as follows: Effect on Ataxia in mouse following i.p. administration. The assay is classed as functional. The note with it: ip.
Assay [3] deals with Rattus norvegicus. The assay is described as follows: Effect on Motor activity(MA) in rat was measured as ED50 by perorally administration of compound. In kind it is functional. The conditions noted are these: po.
The target in the next assay is Adenosine A2 receptor (Rattus norvegicus, UniProt P29276+P30543).
Assay [4] concerns Rattus norvegicus. The assay is described as follows: Effect on Ataxia(ATX) in rat was measured as ED50 by perorally administration of compound. The assay is classed as functional. The note with it: po.
The species entered for assay [5] is Rattus norvegicus. The assay is described as follows: Effect on Sidman conditioned avoidance in rat. In kind it is functional.

Description for Adenosine A2 receptor: Binding affinity to A2 adenosine receptor in rat striatal membranes by [3H]NECA (1-(6-amino-9H-purin-9-yl)-1-deoxy-N-ethyl-beta-D-ribofuranuronamide) displacement.
Description for Adenosine receptor A1: Binding affinity to adenosine A1 receptor in rat whole brain membranes by [3H]N6-cyclohexyladenosine displacement.

As for `OC[C@H]1O[C@@H](n2cnc3c(NCCc4ccccc4)ncnc32)[C@H](O)[C@@H]1O`, the 50% effective dose (ED50) with Mus musculus [1] is 15 mg/kg; with Mus musculus [2], greater than 100 mg/kg. At Adenosine receptor A1, this compound displayed a Ki of 12.7 nM.

On to `OC[C@H]1O[C@@H](n2cnc3c(NCC(c4ccccc4)c4ccccc4)ncnc32)[C@H](O)[C@@H]1O`, for which the median effective dose (ED50) amounted to 1.3 mg/kg with Mus musculus [1]; 2.2 mg/kg in the assay on Rattus norvegicus [3]; 31 mg/kg with Rattus norvegicus [4]; 145 mg/kg in the assay on Mus musculus [2]; 2.5 mg/kg in the assay filed under Rattus norvegicus [5]. In addition, the Ki was found to be 6.8 nM at Adenosine receptor A1 and 25 nM on Adenosine A2 receptor.

For `OC[C@H]1O[C@@H](n2cnc3c(NCCCCc4ccccc4)ncnc32)[C@H](O)[C@@H]1O`, the ED50 with Mus musculus [1] was 32 mg/kg; with Mus musculus [2], greater than 100 mg/kg. Besides, the inhibitory constant (Ki) at Adenosine receptor A1 is 15.9 nM; on Adenosine A2 receptor it was 1230 nM.

For `OC[C@H]1O[C@@H](n2cnc3c(NCCCc4ccccc4)ncnc32)[C@H](O)[C@@H]1O`, the median effective dose (ED50) in the assay on Mus musculus [1] is 19 mg/kg; in the assay with Mus musculus [2] it was greater than 100 mg/kg. The Ki on Adenosine receptor A1 was 23 nM; at Adenosine A2 receptor, 420 nM.

Take `OC[C@H]1OC(n2cnc3c(NCCCCC(c4ccccc4)c4ccccc4)ncnc32)[C@H](O)[C@@H]1O` (stereo partly specified): the ED50 is 30 mg/kg with Mus musculus [1] and greater than 100 mg/kg in the assay with Mus musculus [2]. The Ki on Adenosine receptor A1 was 146 nM; at Adenosine A2 receptor, 2200 nM.

As to `CC(C)(CNc1ncnc2c1ncn2C1O[C@H](CO)[C@@H](O)[C@H]1O)c1ccccc1` (stereo partly specified), the ED50 in the assay with Mus musculus [1] amounted to 6.7 mg/kg; in the assay with Mus musculus [2], 30 mg/kg. Besides, the Ki on Adenosine receptor A1 amounted to 16.2 nM; on Adenosine A2 receptor, 320 nM.

Take `OC[C@H]1OC(n2cnc3c(NCC(c4ccccc4)(c4ccccc4)c4ccccc4)ncnc32)[C@H](O)[C@@H]1O` (stereo partly specified): the results for the 50% effective dose (ED50) in the assay on Mus musculus [1] and in the assay on Mus musculus [2] were 80 mg/kg and greater than 100 mg/kg, respectively. Moreover, the inhibitory constant (Ki) on Adenosine receptor A1 came out at 14300 nM; at Adenosine A2 receptor, 26000 nM.

For the compound `OC[C@H]1OC(n2cnc3c(NC(c4ccccc4)c4ccccc4)ncnc32)[C@H](O)[C@@H]1O` (stereo partly specified), the figures for the ED50 in the assay on Mus musculus [1] and in the assay with Mus musculus [2] were 80 mg/kg and greater than 100 mg/kg, respectively. Also, the Ki at Adenosine receptor A1 stood at 480 nM; on Adenosine A2 receptor, 3800 nM.

As to `OC[C@H]1OC(n2cnc3c(NCCC(c4ccccc4)c4ccccc4)ncnc32)[C@H](O)[C@@H]1O` (stereo partly specified), the 50% effective dose (ED50) was 33 mg/kg in the assay on Mus musculus [1] and greater than 100 mg/kg in the assay on Mus musculus [2]. Moreover, the Ki at Adenosine receptor A1 came out at 79 nM; on Adenosine A2 receptor, 290 nM.

Consider `CC(CNc1ncnc2c1ncn2C1O[C@H](CO)[C@@H](O)[C@H]1O)(c1ccccc1)c1ccccc1` (stereo partly specified), for which the results for the ED50 in the assay on Mus musculus [1] and with Mus musculus [2] were 7 mg/kg and greater than 100 mg/kg, respectively. Also, the Ki turned out to be 37 nM at Adenosine receptor A1 and 30 nM on Adenosine A2 receptor.

As for `OC[C@H]1OC(n2cnc3c(NCCCC(c4ccccc4)c4ccccc4)ncnc32)[C@H](O)[C@@H]1O` (stereo partly specified), the ED50 in the assay on Mus musculus [1] was 32 mg/kg; in the assay on Mus musculus [2] it was greater than 100 mg/kg. For the same compound, the Ki on Adenosine receptor A1 worked out at 290 nM; on Adenosine A2 receptor, 4700 nM.

On to `CC(CNc1ncnc2c1ncn2[C@@H]1O[C@H](CO)[C@@H](O)[C@H]1O)c1ccccc1` (mixture of isomers), for which the ED50 in the assay with Mus musculus [1] was determined as 0.5 mg/kg; with Mus musculus [2], 7 mg/kg. The inhibitory constant (Ki) turned out to be 2.4 nM at Adenosine receptor A1 and 98 nM on Adenosine A2 receptor.

Turning to `C[C@@H](Cc1ccccc1)Nc1ncnc2c1ncn2[C@@H]1OC(CO)[C@@H](O)[C@H]1O` (single isomer, unassigned), the ED50 in the assay with Mus musculus [1] is 16 mg/kg; in the assay with Mus musculus [2] it was 75 mg/kg.

`C[C@H](Cc1ccccc1)Nc1ncnc2c1ncn2[C@@H]1O[C@H](CO)[C@@H](O)[C@H]1O` [(R)-PIA]: the ED50 worked out at 0.8 mg/kg in the assay with Mus musculus [1] and 2 mg/kg in the assay on Mus musculus [2].

Take `O=C(CCCN1CCC(O)(c2ccc(Cl)cc2)CC1)c1ccc(F)cc1` [HALOPERIDOL]: the ED50 in the assay with Mus musculus [1] was 0.27 mg/kg; with Rattus norvegicus [3] it was 0.24 mg/kg; with Rattus norvegicus [4], greater than 1 mg/kg; in the assay with Mus musculus [2] it was 12 mg/kg; in the assay listed under Rattus norvegicus [5] it was 0.3 mg/kg.

Take `OC[C@H]1O[C@@H](n2cnc3c(NCc4ccccc4)ncnc32)[C@H](O)[C@@H]1O` [N6-BENZYLADENOSINE]: the ED50 with Mus musculus [1] is 22 mg/kg; in the assay with Mus musculus [2], greater than 100 mg/kg. For the same compound, the inhibitory constant (Ki) on Adenosine A2 receptor stood at 280 nM.

As to `OC[C@H]1O[C@@H](n2cnc3c(Nc4ccccc4)ncnc32)[C@H](O)[C@@H]1O` [N6-PHENYLADENOSINE], the ED50 worked out at 25 mg/kg in the assay on Mus musculus [1] and 30 mg/kg in the assay on Mus musculus [2]. The inhibitory constant (Ki) turned out to be 4.6 nM at Adenosine receptor A1 and 660 nM at Adenosine A2 receptor.

As to `CSc1ccc2c(c1)N(CCC1CCCCN1C)c1ccccc1S2` (stereo unspecified) [THIORIDAZINE], the 50% effective dose (ED50) in the assay with Mus musculus [1] was 3.3 mg/kg; in the assay with Rattus norvegicus [3] it was 13.3 mg/kg; with Rattus norvegicus [4], greater than 30 mg/kg; in the assay with Mus musculus [2], 13 mg/kg; in the assay filed under Rattus norvegicus [5], 19.7 mg/kg.

In general, ED50 refers to the dose that gives a 50% effect, or the effect in half of the subjects. By Ki is commonly meant a measure of affinity in units of concentration, obtained from inhibition or displacement. Low readings indicate higher affinity, high ones lower affinity.

The values above are taken from ChEMBL document CHEMBL1123600, “N6-(2,2-diphenylethyl)adenosine, a novel adenosine receptor agonist with antipsychotic-like activity” (J Med Chem, 1987).
